What was measured:
Format in all cases: cell-based
Caco2 cells [1] = assay: Cell cycle analysis by flow cytometer (PI staining), Caco2 cells
Experimental: (§1) The results of Example 2 in cell viability hinted the effects of HCD, PG, and 5-FU on arresting cell cycle. In this example, the phase of cell cycle of Caco2 and HT-29 cells after the treatment listed in Table 1 was determined by flow cytometer. Briefly, 7×10^4 cells per well were inoculated in 12-wells plate and incubated overnight at 37° C., 5% CO2. Then, cells were treated according to the treatment listed in Table 1 by indicated time period. After treatment, cells were harvested by trypsin and fixed with 70% ethanol at −20° C. for at least 3 hr. The cells were washed in cold PBS twice and then incubated with 1 mL (v/v) staining solution (20 μg/mL propidium iodide (PI), 0.1% Triton X-100, 0.2 mg/mL Rnase) at 37° C. for 30 minutes. Lastly, cells were analyzed by flow cytometer (Cytomics™ FC500, Backman, Fullerton, Calif., USA). Data from 10,000 cells were collected for each experimental group.

HT-29 cells [2] = assay: MTT assay cell viability, HT-29 cells
Experimental: (§2) Two cell lines were used in this study, Caco2 cells and HT-29 cells. Both of them are colorectal cancer cells. Caco2 cells and HT-29 cells were maintained in DMEM (or RPMI) supplemented with 20% or 10% fetal bovine serum (FBS; GIBCO), pH 7.4 at 37° C. with continuous circulation of 5% CO2 incubator. The medium was changed every 2 days and the cells were trypsinized using trypsin/EDTA when reaching 80%-90% confluence.
(§3) In this example, the effects of HCD, PG, and 5-FU on the viability of Caco2 cells and HT-29 cells were examined. The MTT assay was employed for this purpose. The MTT (3-(4-,5-dimethylthiazol-2-yl)-2,5-diphenyltetrazolium bromide) assay is a common colorimetric method in the field for cell viability analysis. MTT (yellow tetrazolium salt) is reduced to a purple formazan by living cells and detection to the purple formazan can be calculated as the cell viability.
(§4) Briefly, cells (Caco2 or HT-29) were seeded in 96-well plate (7×10^3 cell per well) and incubated overnight (37° C., 5% CO2).
(§5) On the other hand, in the pretreatment analysis, cells (Caco2 or HT-29) were seeded in 96-well plate (7×10^3 cell per well) and incubated overnight (37° C., 5% CO2). In according to the treatments listed in the Table 1, Cells were pre-treated by HCD or PG for 6, 12, 24, 36, or 48 hr and then were treated by 5-FU for additional 24 hr.

HT-29 cells [3] = assay: Cell cycle analysis by flow cytometer (PI staining), HT-29 cells
Experimental: as §1

Caco2 cells [4] = assay: MTT assay cell viability, Caco2 cells
Experimental: as §2, §3, §4, §5

`CCCCCC1=C/C(=C/c2[nH]c(-c3ccc[nH]3)cc2OC)N=C1C` [PG, Prodigiosin] was tested, and the “G0/G1 (%)” value (Caco2 cells [1]; Caco2, 0.5 μM, 36 hr) was 51.3 ± 3.8%, the “G2/M (%)” value (Caco2 cells [1]; Caco2, 0.5 μM, 36 hr) was 14.93 ± 4.27% and the “S (%)” value (Caco2 cells [1]; Caco2, 0.5 μM, 36 hr) was 12.97 ± 0.49%. For the same compound, the “Sub G1 (%)” value (Caco2 cells [1]; Caco2, 0.5 μM, 36 hr) was 18.67 ± 2.06 %, the “G0/G1 (%)” value (Caco2 cells [1]; Caco2, 0.5 μM, 48 hr) was 53.43 ± 13.12% and the “G2/M (%)” value (Caco2 cells [1]; Caco2, 0.5 μM, 48 hr) was 15.9 ± 8.23%. The “S (%)” value (Caco2 cells [1]; Caco2, 0.5 μM, 48 hr) was 18.17 ± 7.05%, the “Sub G1 (%)” value (Caco2 cells [1]; Caco2, 0.5 μM, 48 hr) was 11.67 ± 4.07% and the “G0/G1 (%)” value (Caco2 cells [1]; Caco2, 2 μM, 36 hr) was 44.53 ± 7.05%. The “G2/M (%)” value (Caco2 cells [1]; Caco2, 2 μM, 36 hr) was 17.33 ± 1.95%, the “S (%)” value (Caco2 cells [1]; Caco2, 2 μM, 36 hr) was 14.33 ± 1.76% and the “Sub G1 (%)” value (Caco2 cells [1]; Caco2, 2 μM, 36 hr) was 21.47 ± 3.41 %. The “G0/G1 (%)” value (Caco2 cells [1]; Caco2, 2 μM, 48 hr) was 49.87 ± 9.56%, the “G2/M (%)” value (Caco2 cells [1]; Caco2, 2 μM, 48 hr) was 12.43 ± 4.48% and the “S (%)” value (Caco2 cells [1]; Caco2, 2 μM, 48 hr) was 15 ± 6.14%. For the same compound, the “Sub G1 (%)” value (Caco2 cells [1]; Caco2, 2 μM, 48 hr) was 18.77 ± 7.49%, the “G0/G1 (%)” value (Caco2 cells [1]; Caco2, 5 μM, 36 hr) was 37.9 ± 6.04 % and the “G2/M (%)” value (Caco2 cells [1]; Caco2, 5 μM, 36 hr) was 15.43 ± 7.86%. For the same compound, the “S (%)” value (Caco2 cells [1]; Caco2, 5 μM, 36 hr) was 14.23 ± 3.12%, the “Sub G1 (%)” value (Caco2 cells [1]; Caco2, 5 μM, 36 hr) was 30.07 ± 6.7 % and the “G0/G1 (%)” value (Caco2 cells [1]; Caco2, 5 μM, 48 hr) was 45.83 ± 3.3%. The “G2/M (%)” value (Caco2 cells [1]; Caco2, 5 μM, 48 hr) was 8.7 ± 2.07 %, the “S (%)” value (Caco2 cells [1]; Caco2, 5 μM, 48 hr) was 11.67 ± 2% and the “Sub G1 (%)” value (Caco2 cells [1]; Caco2, 5 μM, 48 hr) was 33.53 ± 6.73 %. For the same compound, the “G2/M phase after pre-treatment then 5-FU (in words)” value (Caco2 cells [1]; Caco2, 12 and 24 hr pretreatment of 1 or 2 μM, then 5-FU) was “decreased”, the “effect of pre-treating on efficacy of 5-FU in the subsequent treatment (MTT)” value (HT-29 cells [2]; HT-29, pre-treatment 6-48 hr, then 5-FU 2 μM 24 hr) was “significantly enhanced the efficacy of 5-FU” and the IC50 (HT-29 cells [2]; Homo sapiens, HT-29 cells, 36 hr treatment) was 500 nM. For the same compound, the “G0/G1 (%)” value (HT-29 cells [3]; HT-29, 0.5 μM, 24 hr) was 65.3 ± 5.66 %, the “G2/M (%)” value (HT-29 cells [3]; HT-29, 0.5 μM, 24 hr) was 11.65 ± 0.78% and the “S (%)” value (HT-29 cells [3]; HT-29, 0.5 μM, 24 hr) was 5.9 ± 1.13 %. The “Sub G1 (%)” value (HT-29 cells [3]; HT-29, 0.5 μM, 24 hr) was 14.65 ± 4.03 %, the “G0/G1 (%)” value (HT-29 cells [3]; HT-29, 0.5 μM, 36 hr) was 48.28 ± 6.29 % and the “G2/M (%)” value (HT-29 cells [3]; HT-29, 0.5 μM, 36 hr) was 5.8 ± 0.84%. For the same compound, the “S (%)” value (HT-29 cells [3]; HT-29, 0.5 μM, 36 hr) was 5.8 ± 0.68 %, the “Sub G1 (%)” value (HT-29 cells [3]; HT-29, 0.5 μM, 36 hr) was 37.88 ± 7.42 % and the “G0/G1 (%)” value (HT-29 cells [3]; HT-29, 2 μM, 24 hr) was 54.35 ± 5.02%. The “G2/M (%)” value (HT-29 cells [3]; HT-29, 2 μM, 24 hr) was 12.35 ± 2.33%, the “S (%)” value (HT-29 cells [3]; HT-29, 2 μM, 24 hr) was 9.85 ± 1.2% and the “Sub G1 (%)” value (HT-29 cells [3]; HT-29, 2 μM, 24 hr) was 20.05 ± 5.87 %. For the same compound, the “G0/G1 (%)” value (HT-29 cells [3]; HT-29, 2 μM, 36 hr) was 29.15 ± 3.18 %, the “G2/M (%)” value (HT-29 cells [3]; HT-29, 2 μM, 36 hr) was 14.4 ± 0.71 % and the “S (%)” value (HT-29 cells [3]; HT-29, 2 μM, 36 hr) was 12.3 ± 1.13 %. The “Sub G1 (%)” value (HT-29 cells [3]; HT-29, 2 μM, 36 hr) was 40.25 ± 3.32 %, the “G0/G1 (%)” value (HT-29 cells [3]; HT-29, 5 μM, 24 hr) was 49.8 ± 7.07% and the “G2/M (%)” value (HT-29 cells [3]; HT-29, 5 μM, 24 hr) was 13.25 ± 0.21%. For the same compound, the “S (%)” value (HT-29 cells [3]; HT-29, 5 μM, 24 hr) was 12.9 ± 0%, the “Sub G1 (%)” value (HT-29 cells [3]; HT-29, 5 μM, 24 hr) was 19.6 ± 7.95 % and the “G0/G1 (%)” value (HT-29 cells [3]; HT-29, 5 μM, 36 hr) was 27.85 ± 1.06 %. The “G2/M (%)” value (HT-29 cells [3]; HT-29, 5 μM, 36 hr) was 3.2 ± 0.85 %, the “S (%)” value (HT-29 cells [3]; HT-29, 5 μM, 36 hr) was 5.9 ± 0.42 % and the “Sub G1 (%)” value (HT-29 cells [3]; HT-29, 5 μM, 36 hr) was 61.85 ± 2.47 %. For the same compound, the “cell cycle phases after pre-treatment then 5-FU (in words)” value (HT-29 cells [3]; HT-29, pre-treatment, then 5-FU) was “increase of sub G1 phase and decrease of G2/M phase”, the “effect of pre-treating on efficacy of 5-FU in the subsequent treatment (MTT)” value (Caco2 cells [4]; Caco2, pre-treatment 6-48 hr, then 5-FU 2 μM 24 hr) was “significantly enhanced the efficacy of 5-FU” and the IC50 (Caco2 cells [4]; Homo sapiens, Caco-2, Caco2 cells, 48 hr treatment) was 2000 nM.
